Test results reported in PMC11140455 (RSC Advances, 2024).
Where “and” joins values, the source holds several entries; their conditions need not be identical. Identical values can stand only once. Like-named read-outs stand apart in the source and are kept apart here.

Key:
[1] = system: H2228 EML4-ALK cancer cell line; assay: Antiproliferative activity, MTT assay, H2228 monolayer; assay type: cell-based, human; conditions: read-out: H2228 IC50 EML4-ALK
[2] = system: BaF3/NMP-ALK cancer cell line; assay: Antiproliferative activity, CCK-8 assay, BaF3/ALK cells; assay type: cell-based, mouse; conditions: read-out: BaF3/NMP-ALK IC50
[3] = system: H2228 xenograft; assay: In vivo anti-tumor evaluation, H2228 xenograft in nude mice; conditions: 20 mg kg^-1, oral, 14 days
[4] = system: EA.hy926 cells; assay: Toxicity assay on human normal cells, EA.hy926; assay type: cell-based; conditions: for IC50: Homo sapiens
[5] = system: HK-2 cells; assay: Toxicity assay on human normal cells, HK-2; assay type: cell-based
[6] = system: L02 cells; assay: Toxicity assay on human normal cells, L02; assay type: cell-based; conditions: L02, read-out: IC50 L02
[7] = MTT, 48 h, mean ± SD, at least three experiments
[8] = CCK-8, 48 h, at least three experiments

IC50 [1, 7] [nM] | IC50 [2, 8] [nM] | Compound | also measured
33 ± 7 | 29 ± 12 | 4-Chloro-N2-(2-ethoxy-5-methyl-4-(1-methylpiperidin-4-yl)phenyl)-N5-(2-(ethylsulfinyl)-4-fluorophenyl)pyrimidine-2,5-diamine [Compound 18g] | –
31 ± 10 | 28 ± 8 | 4-Chloro-N5-(2-(ethylsulfinyl)-4-fluorophenyl)-N2-(2-isopropoxy-5-methyl-4-(1-methylpiperidin-4-yl)phenyl)pyrimidine-2,5-diamine [Compound 18L] | –
63 ± 8 | 56 ± 4 | 4-Chloro-N5-(2-(ethylsulfinyl)-4-fluorophenyl)-N2-(2-isopropoxy-5-methyl-4-(piperidin-4-yl)phenyl)pyrimidine-2,5-diamine [Compound 18j] | –
37 ± 11 | 31 ± 13 | 4-Chloro-N5-(2-(ethylsulfinyl)-4-fluorophenyl)-N2-(2-methoxy-5-methyl-4-(1-methylpiperidin-4-yl)phenyl)pyrimidine-2,5-diamine [Compound 18f] | –
58 ± 16 | 47 ± 15 | 4-Chloro-N5-(2-(ethylsulfinyl)-4-fluorophenyl)-N2-(2-methoxy-5-methyl-4-(piperidin-4-yl)phenyl)pyrimidine-2,5-diamine [Compound 18h] | –
57 ± 6 | 24 ± 5 | 4-Chloro-N5-(2-(ethylsulfinyl)phenyl)-N2-(2-methoxy-4-(1-methylpiperidin-4-yl)phenyl)pyrimidine-2,5-diamine [Compound 18k] | –
44 ± 12 | 33 ± 10 | 4-Chloro-N5-(2-(ethylsulfinyl)phenyl)-N2-(2-methoxy-5-methyl-4-(1-methylpiperidin-4-yl)phenyl)pyrimidine-2,5-diamine [Compound 18e] | –
81 ± 28 | 77 ± 15 | 4-Chloro-N5-(4-chloro-2-(ethylsulfinyl)phenyl)-N2-(2-isopropoxy-5-methyl-4-(1-methylpiperidin-4-yl)phenyl)pyrimidine-2,5-diamine [Compound 18i] | –
– | – | Cc1cc(Nc2ncc(Cl)c(Nc3ccccc3S(=O)(=O)C(C)C)n2)c(OC(C)C)cc1C1CCNCC1 [Ceritinib, ceritinib] | IC50 ([1]; Homo sapiens, NCI-H2228, 48 h): 25 ± 10 nM; IC50 ([2]; Mus musculus, BaF3, 48 h): 18 ± 1 nM; Tumor growth inhibitory rate (TGI) [3]: 72.8% and 72.0%; Tumor volume changes (inhibitory effects) [3]: 131.00 mm^3; EA.hy926 cell morphology ([4]; 48 h, 1 μM (Fig. 9)): abnormal morphology changes; IC50 ([4]; EA.hy 926, read-out: IC50 EA.hy926 (active)): 3420 ± 560 nM; IC50 ([4]; EA.hy 926, read-out: IC50 EA.hy926 (quiescent)): 2440 ± 340 nM; HK-2 cell morphology ([5]; 48 h, 1 μM (Fig. 9)): abnormal morphology changes; IC50 ([5]; Homo sapiens, HK-2, read-out: IC50 HK-2): 1440 ± 250 nM; IC50 [6]: 3420 ± 560 nM
